For assay [1], the target named is T1, crude spleen cytosol (hydroxyguanidine reducing activity) (Rattus norvegicus, UniProt P22985).
T1 construct: from tissue; host or cells: rat spleen (70,000 x g supernatant)
Description: Reduction of guanoxabenz to guanabenz by crude spleen cytosol, HPLC. It is filed as biochemical. The method, then:
Preparation of crude spleen cytosol. Rat spleens were homogenised (1:10 w/v) in ice-cold […] Tris, 1.5 mM EDTA, pH 7.5 with glass/Teflon homogenizer. The homogenate was centrifuged at 30,000×g for 15 min at 4° C. and stored frozen at −80° C. After thawing the supernatant was centrifuged at 70,000×g for 1 hr at 4° C. and used for the assays.
Identification of a reaction product derived from hydroxyguanidine. Crude spleen cytosol was incubated at 25° C. with 70 μM guanoxabenz (2(2,6-dichlorophenyl)methylene-N-hydroxyhydrazine carboxi-imidamide) in the presence of 25 mM Tris-HCl, 0.75 mM EDTA, the total volume being 4 ml. Aliquots of 250 μl were then withdrawn from the reaction mixture after 1, 30, 60, 90 or 240 minutes and heated in a water bath to 80° C. for 5 minutes. The sample was then centrifuged and the supernatant filtered through a 0.22 μm Millipore filter whereafter 200 μl of the filtrate was injected into a reverse phase chromatography column (Waters Symmetry C8) equilibrated in 40% methanol, 60% 10 mM Na-acetate buffer, pH 4.5. The elution speed was 0.5 ml/min and the eluted substances were detected by a UV-monitor set at 260 nm.
In FIG. 1 is shown exemplary details on the time course of appearence of the product.
Preparation of the enzymatic reaction product for NMR-analysis. To obtain enough of the product for NMR studies guanoxabenz (500 μM) was pre-incubated with the crude spleen cytosol for 1 hr. […] Total volume of the reaction mixture was 4 ml. After the incubation the reaction mixture was boiled, centrifuged and filtered, essentially as described above, and aliquots of the materials injected onto the HPLC column. […] The fractions containing the product peak were collected, pooled and lyophilized and then subjected to NMR-analysis.

The next assay relates to rat spleen cytosol. Description: Hydroxyguanidine reducing activity of spleen cytosol by radioligand binding assay. It counts as biochemical. The settings on record: 70 μM guanoxabenz, 1 hr at 25° C. The method, then: Assay of hydroxyguanidine reducing activity by radioligand binding. The assay is based on the possibility to measure the affinity of ligands to α2-adrenoceptors by using radioligand binding. In a typical experiment small aliquots of the sample to be measured is added to an assay containing membranes rich in α2-adrenoceptors as well as a suitable concentration of a radioligand capable of binding to α2-adrenoceptors. After the assay mixture has been incubated for a suitable time, to achieve equilibrium, the amount of radioligand bound to the membranes is measured by washing and filtering on GF/C glass fibre filters using methods that are well described in literature, and which are commonly referred to as radioligand binding. The ability of the hydroxyguanidine and its product to inhibit the binding of the radioligand to the α2-adrenoceptor constituted a measure of the hydroxyguanidine/guanidine activity of the reaction mixture. A preferred hydroxyguanidine is one which corresponding guanidine show substantially different affinity compared to the hydroxyguanidine itself. A most preferred example of such a hydroxyguanidine is guanoxabenz.
In a more more exact version of the assay the “apparent affinity” of the mixture of hydroxyguanidine and guanidine-product is measured by constructing a complete competition curve for each sample to be measured. This is achieved by adding different dilutions of the reaction mixture to the radioligand binding assay. Since the sum of the concentration of the hydroxyguanidine and the guanidine product is known, the “apparent affinity” of the mixture can be calculated from the radioligand binding data using standard procedures for radioligand binding data analysis (Uhlén and Wikberg,1991). For the purpose of the present studies the apparent affinity of the reaction mixture was estimated from competition data by using a radioligand binding analysis computer software package (Wan System AB, Trillvägen 13, S-905 92 Umeå, Sweden). The fraction (q) of guanidine product obtained is then given by: [formula] […]

In assay [2] the target is T2, bovine milk xanthine oxidase (Bos taurus, UniProt P80457). Description: Hydroxyguanidine reducing activity of bovine xanthine oxidase, simplified radioligand binding assay. The settings on record: 100 μM xanthine versus xanthine absent. It counts as biochemical. The method, then:
(§1) In a simplified form of the assay the α2-adrenoceptor containing membranes and the [^3H]RX821002 radioligand were added together with the hydroxyguanidine reducing activity and the hydroxyguanidine, and the mixture then incubated for a suitable time. In this implementation of the assay the reduction of the hydroxyguanidine occurred simultaneously with the assay of the […]. Example of this variant of the assay is given in Examples 4 and 8.
(§2) Hydroxyguanidine reducing activity of bovine xanthine oxidase.

The subject of assay [3] is bovine milk xanthine oxidase. The description is as above. It counts as biochemical. The method, then: as §1, §2
Assay [4] addresses T2, bovine milk xanthine oxidase.
Description: Capacity of allopurinol to inhibit the reduction of hydroxyguanidines by xanthine oxidase. […] In these tests varying amounts of guanoxabenz was added to assays yielding 150 μl final volumes and containing final concentrations 0.004 units/ml of bovine milk xanthine oxidase (Sigma, St. Louis, MO., USA), 100 μM xanthine, 20 μM allopurinol, 50 pM α2-adrenoceptors (in HT29 cell membranes), 33 mM Tris HCl, 1 mM EDTA, pH 7.5, and incubating for 1 hour at 25° C.
[5] abbreviates: 70 μM guanoxabenz, 25° C., after 1 minute incubation, HPLC 260 nm.
The mark [6] stands for this setting: 70 μM guanoxabenz, after 1 hour.

T2 sequence (P80457 2-1332): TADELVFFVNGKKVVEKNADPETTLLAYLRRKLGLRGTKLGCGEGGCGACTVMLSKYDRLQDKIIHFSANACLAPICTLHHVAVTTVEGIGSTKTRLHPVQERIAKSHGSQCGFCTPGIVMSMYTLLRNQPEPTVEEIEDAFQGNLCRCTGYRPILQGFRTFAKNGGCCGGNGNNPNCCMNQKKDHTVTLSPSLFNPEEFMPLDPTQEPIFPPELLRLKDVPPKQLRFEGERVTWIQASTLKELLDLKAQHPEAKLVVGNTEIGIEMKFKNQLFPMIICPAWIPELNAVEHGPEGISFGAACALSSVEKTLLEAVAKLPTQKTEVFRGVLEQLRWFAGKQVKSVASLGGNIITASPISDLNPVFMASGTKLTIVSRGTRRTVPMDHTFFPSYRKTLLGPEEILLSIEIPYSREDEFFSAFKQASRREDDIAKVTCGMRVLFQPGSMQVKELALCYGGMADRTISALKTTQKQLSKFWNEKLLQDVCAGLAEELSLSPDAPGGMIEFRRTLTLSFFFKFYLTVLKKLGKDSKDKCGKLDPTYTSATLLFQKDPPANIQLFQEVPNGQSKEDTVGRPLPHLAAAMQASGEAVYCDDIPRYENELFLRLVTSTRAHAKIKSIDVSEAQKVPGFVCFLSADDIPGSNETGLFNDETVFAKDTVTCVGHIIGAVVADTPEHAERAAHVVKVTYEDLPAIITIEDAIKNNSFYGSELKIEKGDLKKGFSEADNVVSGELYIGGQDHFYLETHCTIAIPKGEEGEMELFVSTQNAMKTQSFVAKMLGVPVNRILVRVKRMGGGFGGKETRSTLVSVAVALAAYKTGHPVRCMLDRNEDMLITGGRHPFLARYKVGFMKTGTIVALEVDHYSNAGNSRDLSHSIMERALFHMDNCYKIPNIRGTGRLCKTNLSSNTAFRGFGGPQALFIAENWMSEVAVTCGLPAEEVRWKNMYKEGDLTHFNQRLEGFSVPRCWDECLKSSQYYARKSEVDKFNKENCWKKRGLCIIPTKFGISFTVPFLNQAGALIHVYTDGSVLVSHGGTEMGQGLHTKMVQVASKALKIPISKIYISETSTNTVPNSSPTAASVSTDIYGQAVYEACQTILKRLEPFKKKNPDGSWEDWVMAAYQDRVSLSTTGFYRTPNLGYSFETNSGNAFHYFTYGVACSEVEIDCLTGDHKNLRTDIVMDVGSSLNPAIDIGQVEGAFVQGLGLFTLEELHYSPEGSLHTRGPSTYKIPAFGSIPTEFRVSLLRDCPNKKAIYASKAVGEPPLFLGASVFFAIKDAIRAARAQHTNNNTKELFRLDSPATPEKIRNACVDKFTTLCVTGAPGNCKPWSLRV
T1 sequence (P22985 whole entry): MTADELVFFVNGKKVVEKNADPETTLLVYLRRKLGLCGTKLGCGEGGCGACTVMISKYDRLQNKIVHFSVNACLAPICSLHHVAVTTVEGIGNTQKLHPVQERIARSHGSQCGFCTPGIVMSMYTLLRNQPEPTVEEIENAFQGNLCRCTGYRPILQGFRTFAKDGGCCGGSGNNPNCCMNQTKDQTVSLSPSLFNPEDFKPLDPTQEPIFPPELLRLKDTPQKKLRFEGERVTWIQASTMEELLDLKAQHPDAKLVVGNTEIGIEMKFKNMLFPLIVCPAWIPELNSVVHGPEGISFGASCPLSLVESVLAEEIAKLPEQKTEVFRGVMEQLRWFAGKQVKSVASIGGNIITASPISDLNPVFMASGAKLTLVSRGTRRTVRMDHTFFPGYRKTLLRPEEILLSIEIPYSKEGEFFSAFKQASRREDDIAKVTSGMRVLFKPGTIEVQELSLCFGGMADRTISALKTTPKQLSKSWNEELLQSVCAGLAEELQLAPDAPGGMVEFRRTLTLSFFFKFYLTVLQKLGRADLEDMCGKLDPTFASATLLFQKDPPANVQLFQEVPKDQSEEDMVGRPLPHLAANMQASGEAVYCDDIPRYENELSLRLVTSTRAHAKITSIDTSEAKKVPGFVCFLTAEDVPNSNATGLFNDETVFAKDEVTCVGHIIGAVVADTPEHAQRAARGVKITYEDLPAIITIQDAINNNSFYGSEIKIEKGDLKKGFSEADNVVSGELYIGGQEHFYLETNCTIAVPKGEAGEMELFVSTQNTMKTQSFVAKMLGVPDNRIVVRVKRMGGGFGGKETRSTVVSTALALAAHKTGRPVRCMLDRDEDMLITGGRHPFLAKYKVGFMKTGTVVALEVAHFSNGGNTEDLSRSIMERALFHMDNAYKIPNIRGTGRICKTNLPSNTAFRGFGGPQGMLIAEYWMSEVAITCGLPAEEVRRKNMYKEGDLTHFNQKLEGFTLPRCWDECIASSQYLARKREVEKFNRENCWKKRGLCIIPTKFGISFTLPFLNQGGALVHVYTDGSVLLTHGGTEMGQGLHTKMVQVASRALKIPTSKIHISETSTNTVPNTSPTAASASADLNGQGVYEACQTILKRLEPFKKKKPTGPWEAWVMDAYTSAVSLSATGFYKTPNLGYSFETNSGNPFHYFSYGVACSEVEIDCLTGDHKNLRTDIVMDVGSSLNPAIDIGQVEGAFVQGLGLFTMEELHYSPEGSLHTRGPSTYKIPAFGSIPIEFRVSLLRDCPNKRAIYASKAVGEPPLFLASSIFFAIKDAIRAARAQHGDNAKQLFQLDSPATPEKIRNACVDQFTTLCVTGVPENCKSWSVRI

Consider `N=C(NO)NN=Cc1c(Cl)cccc1Cl` [Guanoxabenz, 2(2,6-dichlorophenyl)methylene-N-hydroxyhydrazine carboxi-imidamide], for which, in assay [1] (setting [5]), the “UV-absorption corresponding to the guanabenz peak” value stood at 5% and the “UV-absorption in the guanoxabenz peak” value is reported as 95%. In assay [1] (setting [6]), the “guanabenz peak as part of total absorbance of the chromatograms” value is “about ⅓” and the “guanoxabenz peak as part of total absorbance of the chromatograms” value was “⅔”. In addition, the “size of guanabenz and guanoxabenz peaks” value in assay [1] (70 μM guanoxabenz, after 4 hours) is listed as “about equal size”. Moreover, in assay [1] (500 μM guanoxabenz, 1 hr, MgCl2 (2 mM) and DTT (2 mM)), the “peak corresponding to guanabenz, share of UV-absorbing material (260 nm)” value was “more than 99%”. Further, in the assay with rat spleen cytosol, the “concentration of guanabenz in the sample” value is 17.5 µM, the “conversion of guanoxabenz to guanabenz” value was found to be 25% and the “q (fraction of guanidine product)” value amounted to 0.25. The “increase in the apparent affinity on addition of xanthine” value in assay [2] is reported as “about 40 fold”. Moreover, the “guanoxabenz converted to guanabenz” value in assay [3] (in the absence of xanthine) is listed as “none”. Besides, the “conversion of guanoxabenz to guanabenz” value in assay [3] (in the presence of xanthine) is recorded as “about 88%”. Moreover, the “conversion of guanoxabenz to guanabenz” value in assay [4] (in the absence of allopurinol) was “about 88%”. For the same molecule, in assay [4] (in the presence of allopurinol (20 μM)), the “guanoxabenz converted to guanabenz” value is reported as “none”.

The values above are taken from patent publication US6599943B1, “Use of hydroxyguanidines” (WaPharm AB, priority 1996, dated 2003).
